Assay results reported in paper PMC11472058, “Trinucleotide cap analogs with triphosphate chain modifications: synthesis, properties, and evaluation as mRNA capping reagents” (Nucleic Acids Research, 2024).

Key:
Human Dcp2 = molecular target: T1, Human Dcp2 (Homo sapiens, UniProt Q8IU60); assay: RNA decapping assay with recombinant hDcp2; type: biochemical; conditions: fraction of decapped RNA after 30 min of incubation with hDcp2, 27-nt RNA capped with the analog, 37 °C; triplicates ± SD
T1 construct: made in house; host or cells: E. coli
Description: Human Dcp2 was expressed in E. coli and purified as described previously ([52]). Short 27 nt-capped RNAs (24.2 ng) were diluted with decapping buffer (50 mM Tris–HCl pH 8.0, 50 mM NH4Cl, 0.01% NP-40, 1 mM DTT, 5 mM MgCl2 and 2 mM MnCl2; 2.9 μl of freshly prepared 10 × Buffer) and the final volume was adjusted to 29 μl with ultrapure RNase free water. 4.2 ng (5 μl) of the solution was taken out as time zero reference and diluted with 5 μl loading dye (5 M urea, 44% formamide, 20 mM EDTA, 0.03% bromophenol blue, 0.03% xylene cyanol). The remaining RNAs (20 ng/24 μl) were subjected to 10 nM hDcp2 (250 nM, 1 μl) and the mixtures were incubated at 37°C for 1 h. At defined time points (5, 15, 30 and 60 min), 4 ng of RNA (5 μl) were taken out and the reactions were quenched by adding an equal volume of loading dye. RNAs were resolved electrophoretically on denaturing 15% acrylamide:bisacrylamide 19:1/7 M urea/1 × TBE gel, stained with SYBR Gold (Invitrogen) and visualized using a Typhoon FLA 9500 (GE Healthcare). The decapping progress was determined for each time point by densitometry analysis of the gels, as a ratio between the intensity of the band corresponding to capped RNA and the sum of the intensity of bands from capped and uncapped RNAs. The percentages of remaining capped RNA were then plotted as a function of time.
The RNAs used to determine the capping efficiencies were also useful to study the susceptibility of capped RNA to decapping by hDcp2, the catalytic subunit of the major human mRNA decapping complex Dcp1/Dcp2, which releases m^7GDP and 5′-monophosphorylated RNA (in this case the 26-nt pApG-RNA24; Figure 4C). The progress of decapping at different time points (5, 15, 30 and 60 min) was monitored by HR-PAGE followed by densitometric analysis of the gels (Figure 4C, triplicates of gels are shown in Supplementary Figure S2), and the fraction of remaining capped RNA (27-nt) was plotted as a function of time (Figure 4D-G). […] For better visualization, the data of modified capped RNAs were grouped according to the type of modification present at the 5′ end and presented in separate graphs (Figure 4E–G). To quantify the relative susceptibility to hDcp2, we compared the decapping levels at the 30 min time point (Table 1). For RNAs capped with β-S-triphosphate analogs (1–6, Figure 4E, Table 1), we observed a significant difference in susceptibility to hDcp2 between RP and SP isomers, independent of the methylation pattern.

human eIF4E1a = molecular target: T2, human eIF4E1a (Homo sapiens, UniProt P06730); assay: Fluorescence quenching titration (FQT) binding assay with eIF4E
T2 construct: made in house; host or cells: E. coli Rosetta 2 (DE3)pLysS
T2 sequence (P06730 whole entry): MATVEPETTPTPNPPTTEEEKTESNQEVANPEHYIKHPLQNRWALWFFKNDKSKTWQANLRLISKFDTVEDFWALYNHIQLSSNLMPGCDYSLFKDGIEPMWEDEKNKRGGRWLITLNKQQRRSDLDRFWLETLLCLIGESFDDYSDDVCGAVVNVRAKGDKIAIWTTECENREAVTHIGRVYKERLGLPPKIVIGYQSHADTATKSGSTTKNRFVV
Description: The human eIF4E1a protein was expressed without affinity tag in E. coli Rosseta 2 (DE3)pLysS strain (Novagen) under conditions leading to accumulation of the produced protein in inclusion bodies ([48]). The protein was extracted from inclusion bodies with buffer containing 6 M guanidine hydrochloride, refolded by one-step dialysis against 50 mM HEPES/KOH (pH 7.2), 100 mM KCl, 0.5 mM EDTA, 2 mM DTT, and purified by ion exchange chromatography on HiTrap SP HP 5 ml column (GE Healthcare) using salts gradient. Finally, protein was filtered using Ultrafree MC-HV Centrifugal PVDF filters with 0.45 μm membrane pore (Millipore) to remove protein aggregates and its concentration was determined spectrophotometrically assuming the theoretical extinction coefficient ϵ280nm = 52 940 L mol^−1cm^−1—calculated from amino acid composition using algorithm on ExPASy Server.
Fluorescence titration measurements were carried out on a LS-55 spectrofluorometer (Perkin Elmer Co., Norwalk, CT, USA) in a quartz semi-micro cuvette (Hellma, Germany) with optical lengths 4 mm and 10 mm for absorption and emission, respectively, which was thermostated at 20.0 ± 0.2 °C. The titrations were performed in 50 mM Hepes/KOH pH 7.2, 100 mM KCl, 0.5 mM EDTA and 1 mM DTT by adding 1 μl aliquots of increasing concentrations of the cap solutions to 1.4 ml of 0.1 μM eIF4E1a solution. The eIF4E1a fluorescence was excited at 280 nm and the fluorescence intensity was monitored at a single wavelength 340 nm. The measured fluorescence intensities were corrected for dilution (<4%) and for the inner filter effect. Association equilibrium constants (Kas) were obtained by fitting the theoretical curve for fluorescence intensity (F) upon total concentration of cap analogs ([L]) to the titration data according to the equation: […]
with the concentration of the cap analogs–eIF4E1a complex [cx] given by:
where Δϕ stands for the difference between the fluorescence efficiencies of the apo- and cap analog bound proteins; ϕlig-free is the fluorescence efficiency of the free cap analog; F(0) is the initial fluorescence, and Pact is the total concentration of the active protein ([49]). The final KAS values were calculated as a weighted average from three independent titrations and represented as the KD values. Numerical least-squares nonlinear regression analysis was performed using ORIGIN 2021 from Microcal Software Inc., USA.
Recognition of the mRNA 5′ cap by translation initiation factor 4E (eIF4E) is considered to be the rate-limiting step for the entire translation process ([63],[64]), therefore we investigated the affinity of novel trinucleotide cap analogs to the canonical human eIF4E1a protein by fluorescence quenching titration (FQT; Table 1 column 1, Figure 3) ([65]). As a reference, we determined the dissociation constant between heIF4E1a and the trinucleotide cap-1 structure m^7GpppAmpG, which was equal to 42 nM and very close to the analogous value previously determined for mouse Δ27NeIF4E (46 nM) ([12]). In the case of all modifications tested, the KD values for cap-heIF4E1a complexes are consistent with the results previously obtained for dinucleotide counterparts and murine eIF4E protein, although the magnitude of the modification effect is generally lower. The most tightly bound tetraphosphate analogs (compounds 10–12) show KD values of 6–7 nM, which means that their affinity is about 6-fold higher compared to the triphosphate counterparts. The affinities decrease upon CH2 or CCl2 modification of the tetraphosphate bridge (compounds 13–16), but they are still 4–5 times higher than for the triphosphate analogs with the same adenosine methylation pattern.

SMILES: CO[C@@H]1[C@H](OP(=O)(O)OC[C@H]2O[C@@H](n3cnc4c(=O)[nH]c(N)nc43)[C@H](O)[C@@H]2O)[C@@H](CSP(=O)([O-])OP(=O)(O)OP(=O)(O)OC[C@H]2O[C@@H](n3c[n+](C)c4c(O)nc(N)nc43)[C@H](O)[C@@H]2O)O[C@H]1n1cnc2c(N)ncnc21 [Compound 8, m^7Gppp^5’SAmpG]
- Susceptibility to hDcp2 (@30 min) (Human Dcp2): 0.64 ± 0.11
- effect of modification on binding affinity for heIF4E1a (in words) (human eIF4E1a; compared to corresponding triphosphates): virtually no effect on binding affinity
- Kd (human eIF4E1a; fluorescence quenching titration, 20 °C, pH 7.2, average of triplicates ± SD, read-out: heIF4E1a KD): 0.0487 ± 0.0012 µM
